# Assay results reported in patent US6482856B1, “Method and composition for treating mammalian disease caused by inflammatory response” (Cellular Sciences, Inc., priority 1995, dated 2002).
# Read-outs that look alike come from different tables or passages of the source.
# Key:
# [1] = tested on: emphysema and restrictive airway disease; experiment: Inhalation of nebulized sodium pyruvate solution by a patient; lung capacity and lung function tests; assay type: in vivo, human
# Description: Subject: A person suffering from emphysema and restrictive airway disease was treated as described below for three (3) months.
# Treatment: The treatment was conducted as follows: Five (5) milliliters of five (5) millimolar sodium pyruvate solution is filter sterilized through a 0.2 micron filter. The sterile pyruvate solution is placed into a “Pulmo Aid” nebulizer manufactured by DeVilbiss Co., Somerset, Pa. 15501-0635. The sterile pyruvate solution is nebulized by the Pulmo Aid device fitted with a disposable nebulizer and inhaled by the patient. The patient inhales normally from the Pulmo Aid nebulizer until all of the solution has been nebulized and inhaled. This inhalation step typically takes about ten (10) to twenty (20) minutes.
# The patient is treated with this inhalation therapy periodically. Initially, treatments are about four (4) times a day at about six (6) hour intervals. Treatments were reduced to three (3) times a day at about eight (8) hour intervals after 30 days of therapy. Treatments were further reduced to once a day 60 DAYS AFTER ONSET OF TREATMENT. After ninety (90) days treatments are three to five times a week.
# gastric mucosa [2] = conditions: guinea pigs; caused by acetylsalicylic acid; cited from earlier work
# gastric mucosa [3] = conditions: rats; caused by acetylsalicylic acid; cited from earlier work
# cyanide intoxication = conditions: in vivo; cited from earlier work
# sodium sulfide = conditions: in vivo; cited from earlier work
# [4] = tested on: acrylamide neuropathy of axons; conditions: in vivo; cited from earlier work
# L1210 leukemia = conditions: advanced L1210 leukemia; cited from earlier work
# urinary calculi (stones) = conditions: rats fed calcium-oxalate lithogenic diet, versus control rats; cited from earlier work
# [5] = tested on: bacterial and yeast systems; conditions: cited from earlier work
# [6] = twenty to thirty minutes after initial treatment
smiles,measurement,setting,value
CC(=O)C(=O)[O-].[Na+] [sodium pyruvate],MVV (maximum ventilatory volume),"[1]; After Two Months Treatment, Before: 19",25
same,DCO (diffusion of carbon monoxide),"[1]; After Two Months Treatment, Before: 27",39 MI/min/mm Hg
same,DSB (diffusion single breath),"[1]; After Two Months Treatment, Before: 42",52
same,ERV (expiratory reserve volume),"[1]; After Two Months Treatment, Before: 62",110
same,IC (inspiratory capacity),"[1]; After Two Months Treatment, Before: 64",69
same,O SAT (oxygen saturation),"[1]; After Two Months Treatment, Before: 91",95
same,SVC (slow vital capacity),"[1]; After Two Months Treatment, inhaled 5 ml of 5 millimolar solution, Before: 63",83
same,overall condition of the subject,[1]; after three (3) months treatment,marked improvement
same,Improved lung function,[1]; conclusion of the treatment,20%
same,"Increased exercise tolerance, tested and certified",[1]; conclusion of the treatment,close to that of a person without emphysema and restrictive airway disease
same,Mental attitude,[1]; conclusion of the treatment,greatly improved
same,Reactive airway disease,[1]; conclusion of the treatment,reduced to the point that routine use of inhalers is not needed
same,recurrence of decreased pulmonary functions,[1]; conclusion of the treatment,No recurrence
same,exercise tolerance,[1]; [6],increase
same,tidal volume,[1]; [6],increases
same,wheezing,[1]; [6],stops
same,Use of oxygen,[1]; when treatment started,eliminated immediately
same,overall results,[1]; within two (2) weeks,dramatic results
same,"number of erosions, ulcers, and hemorrhages on the gastric mucosa",gastric mucosa [2],reduce
same,"number of erosions, ulcers, and hemorrhages on the gastric mucosa",gastric mucosa [3],reduce
same,effect on cyanide intoxication,cyanide intoxication,antagonist
same,effect on lethal effects of sodium sulfide,sodium sulfide,protect
same,"onset and development of functional, morphological, and biochemical measures of acrylamide neuropathy",[4],retard
same,abnormally deformed red blood cells,L1210 leukemia,restore abnormally deformed red blood cells to normal
same,urinary calculi (stones),urinary calculi (stones),fewer
same,growth,[5],enhance
same,hydrogen peroxide production,[5],inhibit
same,toxicity of reactive oxygen intermediates,[5],protect
